Data on 3 molecules can be found in ChEMBL document CHEMBL5465560, “Selectivity Literature for EUbOPEN Chemogenomic Library” (2024).

Assay [1] concerns the target T1, Protein kinase C epsilon type (Homo sapiens) (UniProt Q02156).
T1 sequence (whole entry): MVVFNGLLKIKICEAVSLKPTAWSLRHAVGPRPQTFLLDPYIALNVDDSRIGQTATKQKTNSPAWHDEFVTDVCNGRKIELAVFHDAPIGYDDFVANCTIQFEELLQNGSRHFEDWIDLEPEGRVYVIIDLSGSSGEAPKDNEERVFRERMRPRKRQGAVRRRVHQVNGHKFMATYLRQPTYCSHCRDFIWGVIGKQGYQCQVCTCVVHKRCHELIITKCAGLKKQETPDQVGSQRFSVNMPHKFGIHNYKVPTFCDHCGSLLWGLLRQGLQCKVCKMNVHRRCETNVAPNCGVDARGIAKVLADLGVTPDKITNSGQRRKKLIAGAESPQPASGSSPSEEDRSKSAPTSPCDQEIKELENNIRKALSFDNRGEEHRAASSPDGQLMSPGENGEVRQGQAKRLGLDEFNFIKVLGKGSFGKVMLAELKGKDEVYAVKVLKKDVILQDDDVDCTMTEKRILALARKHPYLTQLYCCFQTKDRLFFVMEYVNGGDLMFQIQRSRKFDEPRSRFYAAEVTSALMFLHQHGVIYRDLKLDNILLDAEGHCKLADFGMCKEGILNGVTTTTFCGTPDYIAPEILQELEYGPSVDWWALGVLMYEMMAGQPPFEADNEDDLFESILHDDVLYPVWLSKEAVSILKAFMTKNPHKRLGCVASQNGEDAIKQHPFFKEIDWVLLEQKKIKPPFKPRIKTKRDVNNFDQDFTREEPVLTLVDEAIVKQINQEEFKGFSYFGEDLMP
The assay can be described thus: Selectivity interaction (KinomeScan (DiscoverX)) EUB0001049a PRKCE. The note with it: at 1 µM.

Assay [2] deals with T2, Histone-lysine N-methyltransferase EHMT1 (Homo sapiens) (UniProt Q9H9B1).
T2 sequence (whole entry): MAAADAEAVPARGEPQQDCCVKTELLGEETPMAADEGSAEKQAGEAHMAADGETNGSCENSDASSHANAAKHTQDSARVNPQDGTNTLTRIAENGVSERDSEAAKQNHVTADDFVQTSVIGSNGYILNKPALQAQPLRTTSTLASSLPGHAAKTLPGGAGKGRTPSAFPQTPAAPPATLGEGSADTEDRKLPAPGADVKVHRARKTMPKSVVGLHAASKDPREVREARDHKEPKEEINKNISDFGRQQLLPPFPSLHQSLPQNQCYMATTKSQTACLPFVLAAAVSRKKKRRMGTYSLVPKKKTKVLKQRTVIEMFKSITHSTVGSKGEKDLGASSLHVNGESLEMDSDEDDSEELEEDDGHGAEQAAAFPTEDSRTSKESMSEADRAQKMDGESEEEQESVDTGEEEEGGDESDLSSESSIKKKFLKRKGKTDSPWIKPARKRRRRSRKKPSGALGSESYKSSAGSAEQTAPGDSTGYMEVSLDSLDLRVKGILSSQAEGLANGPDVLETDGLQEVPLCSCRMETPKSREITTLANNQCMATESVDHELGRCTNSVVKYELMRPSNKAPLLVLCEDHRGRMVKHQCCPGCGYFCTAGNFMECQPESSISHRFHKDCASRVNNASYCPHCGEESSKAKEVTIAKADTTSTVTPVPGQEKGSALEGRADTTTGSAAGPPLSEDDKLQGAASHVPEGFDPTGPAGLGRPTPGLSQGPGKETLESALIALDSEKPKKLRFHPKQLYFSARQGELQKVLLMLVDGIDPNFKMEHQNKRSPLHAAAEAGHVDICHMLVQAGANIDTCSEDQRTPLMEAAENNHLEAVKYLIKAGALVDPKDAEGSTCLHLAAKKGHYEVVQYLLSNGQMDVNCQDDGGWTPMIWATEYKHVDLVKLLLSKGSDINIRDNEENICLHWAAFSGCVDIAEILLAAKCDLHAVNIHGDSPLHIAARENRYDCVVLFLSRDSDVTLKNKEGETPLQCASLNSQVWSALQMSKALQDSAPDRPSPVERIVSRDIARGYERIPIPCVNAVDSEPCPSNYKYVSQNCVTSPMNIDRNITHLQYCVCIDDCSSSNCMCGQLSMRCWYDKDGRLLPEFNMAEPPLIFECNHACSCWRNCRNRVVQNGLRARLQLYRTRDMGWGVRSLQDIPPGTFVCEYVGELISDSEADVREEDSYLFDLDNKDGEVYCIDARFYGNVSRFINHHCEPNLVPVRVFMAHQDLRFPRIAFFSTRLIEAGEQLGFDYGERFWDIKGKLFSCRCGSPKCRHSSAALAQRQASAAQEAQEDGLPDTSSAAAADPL
The note with it: at 10 µM.

Assay [3] has as its target T3, Inhibitor of nuclear factor kappa-B kinase subunit beta (Homo sapiens) (UniProt O14920).
T3 sequence (whole entry): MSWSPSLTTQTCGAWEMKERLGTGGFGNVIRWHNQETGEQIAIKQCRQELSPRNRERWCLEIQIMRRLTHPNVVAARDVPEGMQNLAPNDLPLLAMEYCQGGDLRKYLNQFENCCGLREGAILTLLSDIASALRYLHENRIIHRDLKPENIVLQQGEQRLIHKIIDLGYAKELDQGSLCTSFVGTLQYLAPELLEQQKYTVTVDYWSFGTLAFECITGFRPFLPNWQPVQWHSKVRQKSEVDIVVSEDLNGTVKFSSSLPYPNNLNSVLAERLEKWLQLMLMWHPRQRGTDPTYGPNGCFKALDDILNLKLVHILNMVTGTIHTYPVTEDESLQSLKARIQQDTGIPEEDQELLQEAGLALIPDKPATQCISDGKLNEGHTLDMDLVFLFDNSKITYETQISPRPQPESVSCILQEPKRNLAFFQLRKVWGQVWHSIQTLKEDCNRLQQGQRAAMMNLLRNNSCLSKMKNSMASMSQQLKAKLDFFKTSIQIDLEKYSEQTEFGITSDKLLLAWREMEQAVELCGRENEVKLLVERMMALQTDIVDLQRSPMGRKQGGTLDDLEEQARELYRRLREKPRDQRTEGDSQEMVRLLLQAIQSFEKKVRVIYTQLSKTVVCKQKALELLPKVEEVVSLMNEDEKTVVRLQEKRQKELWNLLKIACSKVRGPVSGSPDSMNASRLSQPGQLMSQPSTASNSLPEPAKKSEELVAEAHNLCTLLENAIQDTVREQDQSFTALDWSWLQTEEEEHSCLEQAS
The assay can be described thus: Selectivity interaction (KinomeScan (DiscoverX)) EUB0000607a IKBKB. The following applies: at 10 µM.

In assay [1], `COc1cc(Nc2nc(C)cc(-c3cnn4nc(OC)ccc34)n2)cc(C(F)(F)F)c1` came in with a % of control of 100%.

In the case of `CNCCN1CCC(c2cc(CN(C)C(=O)c3cccc(Oc4ccccc4)c3)ccn2)CC1`, the % activity in assay [2] was over 90%.

In assay [3], `CNC(=O)Nc1ccc(-c2nc(N3CC4CCC(C3)O4)c3cnn(C4CCC5(CC4)OCCO5)c3n2)cc1` yielded a % of control of 79%.
